According to patent US20150141248A1, “ANTIFUNGAL COMPOSITIONS” (DSM IP ASSETS B.V., priority 2011, published 2015):

Columns and labels:
Botrytis cinerea [1] = experiment: In vitro antifungal activity, 96-well microtiter plates; type: cell-based; conditions: in vitro 25° C., natamycin 1.25 ppm
Method: The following compositions were tested: […] Subsequently, 100 μl of a Botrytis cinerea suspension prepared in PCB medium was used to inoculated each well with 2.5×10^3 spores/ml. […] The expected antifungal activity (E in %) of the active ingredient combination was calculated according to the Colby equation (Colby, 1967): […] wherein X and Y are the observed antifungal activities (in %) of the individual active ingredients X and Y, respectively.

Fusarium proliferatum [2] = experiment: Treatment of wounded bananas inoculated with Fusarium proliferatum (mould growth); type: in vivo; conditions: bananas 20° C.
Method: Four organic, unripe (green) bananas were used per treatment. The peel of each banana was wounded thrice using a cork borer according to the method described by de Lapeyre de Bellaire and Dubois (1987). Subsequently, each wound was inoculated with 15 μl of a Fusarium proliferatum suspension containing 1×10^5 of spores/ml. […] In addition, the antifungal compositions comprised 1.00% (w/w) methylhydroxyethylcellulose (MHEC), 0.40% (w/w) xanthan gum, 0.20% (w/w) anti-foaming agent, 0.30% (w/w) citric acid, 0.39% (w/w) lactic acid and 0.11% (w/w) potassium sorbate. The pH of the composition was 4.0. […] The treated, unripe bananas were incubated in a closed box in the dark at 20° C. and a relative air humidity of 95%, which was obtained in the presence of a saturated Na2HPO4 aqueous solution. During the first 20 days of incubation, a ripe (yellow) banana was included in the closed box to elevate the ethylene gas level and thus induce ripening of the treated, unripe bananas. […]
The expected antifungal activity (E in %) of the combined antifungal composition comprising both active ingredients was calculated according to the Colby equation (Colby, 1967): […]
wherein X and Y are the observed antifungal activities (in %) of the individual active ingredients X and Y, respectively. If the observed antifungal activity (O in %) of the combination exceeds the expected antifungal activity (E in %) of the combination and the synergy factor O/E is thus >1.0, the combined application of the active ingredients leads to a synergistic antifungal effect.

Botrytis cinerea [3] = experiment: Treatment of wounded strawberries inoculated with Botrytis cinerea (mould growth); type: in vivo; conditions: 250 ppm natamycin; for Number of moulded wounds/total number of 12 wounds (title: Number of moulded strawberries): strawberries 20° C.; for Observed antifungal activity O: strawberries
Method: Twelve fresh, organic strawberries were used per treatment. Each strawberry was wounded with a 0.5 mm long cut and each wound was inoculated with 10 μl of a Botrytis cinerea suspension containing 1×10^5 of spores/ml. […] The antifungal compositions also comprised 1.00% (w/w) methylhydroxyethylcellulose (MHEC), 0.40% (w/w) xanthan gum, 0.20% (w/w) anti-foaming agent, 0.30% (w/w) citric acid, 0.39% (w/w) lactic acid and 0.11% (w/w) potassium sorbate. The pH of the composition was 4.0. A composition without natamycin or prothioconazole was used as control. The treated strawberries were incubated in a closed box in the dark at 20° C. for 3 days.
After 2 and 3 days of incubation, the mould growth on the strawberries was assessed in a twofold manner: (i) the number of moulded strawberries per total of 12 strawberries was counted; and (ii) the antifungal activity (in %) of the individual and combined active ingredients was determined by calculating the reduction in mould growth observed on the strawberries treated with the antifungal composition in comparison to the mould growth on the strawberries treated with the control composition according to the Colby method described in Example 4 (Colby, 1967).

Penicillium italicum = experiment: Treatment of wounded mandarins inoculated with Penicillium italicum (mould growth); type: in vivo
Method: Ten fresh, organic mandarins were used per treatment. The peel of each mandarin was wounded once using a cork borer according to the method described by de Lapeyre de Bellaire and Dubois (1987). Subsequently, each wound was inoculated with 10 μl of a Penicillium italicum suspension containing 1×10^4 of spores/ml. […] The pH of the composition was 4.0. […]

Fusarium proliferatum [4] = experiment: In vitro antifungal activity, 96-well microtiter plates; type: cell-based; conditions: in vitro 25° C.; 10 days; natamycin 2.5 ppm, prothioconazole 0.5 ppm or both
Method: Subsequently, 100 μl of a Botrytis cinerea suspension prepared in PCB medium was used to inoculated each well with 2.5×10^3 spores/ml.
, the in vitro antifungal activity (%) of the individual active ingredients was assessed by calculating the reduction in mould growth observed in the presence of the active ingredient in comparison to the mould growth observed in the absence of the active ingredient. The expected antifungal activity (E in %) of the active ingredient combination was calculated according to the Colby equation (Colby, 1967): […]
The experiment was conducted as described in Example 13, except for the fact that the following compositions were tested:
Furthermore, Fusarium proliferatum was used for inoculation. The antifungal activity (in %) of the individual and combined active ingredients was determined according to the method described in Example 13.

## OC(Cc1ccccc1Cl)(Cn1nc[nH]c1=S)C1(Cl)CC1 (stereo not shown) [Prothioconazole, prothioconazole]
Botrytis cinerea [1]; 5 days, propiconazole 0.50 ppm, prothioconazole 0.13 ppm, or natamycin 1.25 ppm with either
  Observed antifungal activity O: 0%
Botrytis cinerea [1]; 10 days, prothioconazole 0.13 ppm or both
  Observed antifungal activity O: 50%
Fusarium proliferatum [2]; 250 ppm natamycin, 100 ppm prothioconazole or both, Day 27
  Number of moulded wounds/total number of 12 wounds: 11/12
Fusarium proliferatum [2]; 250 ppm natamycin, 100 ppm prothioconazole or both, Day 27, listed as prothioconazole
  Number of moulded wounds/total number of 12 wounds: 11
Fusarium proliferatum [2]; 250 ppm natamycin, 100 ppm prothioconazole or both, Day 28 and 29
  Number of moulded wounds/total number of 12 wounds: 12/12
Fusarium proliferatum [2]; 250 ppm natamycin, 100 ppm prothioconazole or both, Day 28 and 29, listed as prothioconazole
  Number of moulded wounds/total number of 12 wounds: 12
Fusarium proliferatum [2]; 500 ppm natamycin, 250 ppm prothioconazole or both, Day 27, 28 and 29
  Number of moulded wounds/total number of 12 wounds: 10/12
Fusarium proliferatum [2]; 500 ppm natamycin, 250 ppm prothioconazole or both, Day 27, 28 and 29, listed as prothioconazole
  Number of moulded wounds/total number of 12 wounds: 10
Botrytis cinerea [3]; 500 ppm prothioconazole or both, Day 2
  Number of moulded wounds/total number of 12 wounds (title: Number of moulded strawberries): 12/12
Botrytis cinerea [3]; 500 ppm prothioconazole or both, Day 2, listed as prothioconazole
  Number of moulded wounds/total number of 12 wounds (title: Number of moulded strawberries): 12
Botrytis cinerea [3]; 500 ppm prothioconazole or both, Day 3
  Number of moulded wounds/total number of 12 wounds (title: Number of moulded strawberries): 12/12
Botrytis cinerea [3]; 500 ppm prothioconazole or both, Day 3, listed as prothioconazole
  Number of moulded wounds/total number of 12 wounds (title: Number of moulded strawberries): 12
Botrytis cinerea [3]; 500 ppm prothioconazole (row prints 50 ppm) or both, 3 days
  Observed antifungal activity O: 21%
Botrytis cinerea [3]; 500 ppm prothioconazole or both, 2 days
  Observed antifungal activity O: 14%
Penicillium italicum; 250 ppm natamycin, 150 ppm prothioconazole or both, 13 days
  Observed antifungal activity O: 86%
Penicillium italicum; 250 ppm natamycin, 150 ppm prothioconazole or both, 16 days
  Observed antifungal activity O: 82%
Penicillium italicum; 250 ppm natamycin, 150 ppm prothioconazole or both, 21 days
  Observed antifungal activity O: 71%
Penicillium italicum; 250 ppm natamycin, 150 ppm prothioconazole or both, 26 days
  Observed antifungal activity O: 63%
Penicillium italicum; 250 ppm natamycin, 150 ppm prothioconazole or both, 29 days
  Observed antifungal activity O: 40%
Penicillium italicum; 250 ppm natamycin, 150 ppm prothioconazole or both, 34 days
  Observed antifungal activity O: 27%
Penicillium italicum; 500 ppm natamycin, 600 ppm prothioconazole or both, 25 days
  Observed antifungal activity O: 91%
Penicillium italicum; 500 ppm natamycin, 600 ppm prothioconazole or both, 28 days
  Observed antifungal activity O: 83%
Penicillium italicum; 500 ppm natamycin, 600 ppm prothioconazole or both, 31 days
  Observed antifungal activity O: 71%
Penicillium italicum; 500 ppm natamycin, 600 ppm prothioconazole or both, 34 days
  Observed antifungal activity O: 63%
Fusarium proliferatum [4]
  Observed antifungal activity O: 50%
